# Reference: patent publication US20260234159A1, “SMALL MOLECULE TREATMENT OF FATTY LIVER DISEASE AND HCC” (SCANDIEDGE THERAPEUTICS AB, priority 2023, published 2026)
# What was measured:
# JNK1/2/3 = assay: Western blot, JNK1/2/3 P54 and p46 isoforms; assay type: cell-based, human; conditions: 10 μM, 2 days
# Method: HepG2 cells were seeded into a 6-well plate at 400,000 cells per well. After treatment with 10 μM of JNK-IN-5A and its derivatives for two days, lysates were harvested with CelLytic M (C2978, Sigma-Aldrich). […] SDS PAGE were performed using Mini-PROTEAN® TGX™ Precast Gels (Bio-Rad) and transferred using Trans-Blot® Turbo™ Transfer System (Bio-Rad). […] ImageQuantTMLAS 500 (29-0050-63, GE) was used to detect protein bands.
# HepG2 cells = assay: Wound healing assay; assay type: cell-based; conditions: Homo sapiens, HepG2, 96 h, day 4, untreated 100% wound closure, read-out: wound healing delayed by
# In short: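 HepG2 monolayers grown to 95-100% confluence were scratched with a pipette tip and treated with compounds at 1 μM. Wounds were imaged from day 0 until closure in the control group, and wound area was measured from the images.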
# [1] = In vivo toxicological study in rats: plasma chemistry; parameters: species or system rats of the Wistar strain; conditions: plasma, 30-300 mg/kg of SET171
# Method: Forty-two male and forty-two female rats of the Wistar strain were allocated to the study. Three groups of three males and three females were given doses of 30, 100 and 300 mg/kg of target compounds (Table 8). The vehicle was 1.5 w/w % HPMC, 1.5 w/w % PS80 in 10 mM PBS, pH 7 and dose volume were 5 mL/kg. The animals were acclimatised at least 14 day prior to the study and exposed to a 12 hours light, 12 hours dark light cycle. The formulations were administered via oral gavage. Administration occurred once daily in the morning for seven consecutive days. Blood for scheduled haematology and plasma chemistry were taken at necropsy. For plasma chemistry, 0.6 ml blood (lithium heparin) per animal and for haematology, 0.5 ml blood (K2EDTA) per animal. The blood and plasma were analysed using Exigo analyzer and Vetscan equipment. Blood samples were kept in room temperature […] after collection and mixing. The blood samples were analysed as whole blood within 60 min of collection. The VetScan analyser was calibrated with calibration samples of known plasma levels of each parameter before start of analysis, occasionally during the analysis period of study samples and after completed analyses (Table 10).
compound,measurement,setting,value
N#Cc1c(NC(=O)c2cccc3ccccc23)sc2c1CCN(CC(=O)Nc1cccc(Br)c1)C2 [PKL-B171],JNK1/2/3 p46 expression,JNK1/2/3,0.87 times
same,inhibition at 1 µM,HepG2 cells,36.4%
same,ALB,[1]; Sex/Group F/11,61 g/L
same,ALP,[1]; Sex/Group F/11,114 U/L
same,ALT,[1]; Sex/Group F/11,21 U/L
same,AMY,[1]; Sex/Group F/11,527 U/L
same,BUN,[1]; Sex/Group F/11,6.0 mmol/L
same,CA,[1]; Sex/Group F/11,2.90 mmol/L
same,CRE,[1]; Sex/Group F/11,45 µmol/L
same,GLOB,[1]; Sex/Group F/11,8 g/L
same,GLU,[1]; Sex/Group F/11,7.8 mmol/L
same,K+,[1]; Sex/Group F/11,4.4 mmol/L
same,NA+,[1]; Sex/Group F/11,138 mmol/L
same,PHOS,[1]; Sex/Group F/11,2.33 mmol/L
same,TBIL,[1]; Sex/Group F/11,5.3 µmol/L
same,TP,[1]; Sex/Group F/11,70 g/L
same,ALB,[1]; Sex/Group F/12,57 g/L
same,ALP,[1]; Sex/Group F/12,126 U/L
same,ALT,[1]; Sex/Group F/12,21 U/L
same,AMY,[1]; Sex/Group F/12,570 U/L
same,BUN,[1]; Sex/Group F/12,6.5 mmol/L
same,CA,[1]; Sex/Group F/12,2.92 mmol/L
same,CRE,[1]; Sex/Group F/12,38 µmol/L
same,GLOB,[1]; Sex/Group F/12,9 g/L
same,GLU,[1]; Sex/Group F/12,7.7 mmol/L
same,K+,[1]; Sex/Group F/12,4.5 mmol/L
same,NA+,[1]; Sex/Group F/12,137 mmol/L
same,PHOS,[1]; Sex/Group F/12,2.42 mmol/L
same,TBIL,[1]; Sex/Group F/12,5.0 µmol/L
same,TP,[1]; Sex/Group F/12,66 g/L
same,ALB,[1]; Sex/Group F/13,56 g/L
same,ALP,[1]; Sex/Group F/13,145 U/L
same,ALT,[1]; Sex/Group F/13,21 U/L
same,AMY,[1]; Sex/Group F/13,550 U/L
same,BUN,[1]; Sex/Group F/13,6.3 mmol/L
same,CA,[1]; Sex/Group F/13,2.89 mmol/L
same,CRE,[1]; Sex/Group F/13,39 µmol/L
same,GLOB,[1]; Sex/Group F/13,11 g/L
same,GLU,[1]; Sex/Group F/13,7.9 mmol/L
same,K+,[1]; Sex/Group F/13,4.5 mmol/L
same,NA+,[1]; Sex/Group F/13,139 mmol/L
same,PHOS,[1]; Sex/Group F/13,2.64 mmol/L
same,TBIL,[1]; Sex/Group F/13,4.0 µmol/L
same,TP,[1]; Sex/Group F/13,67 g/L
same,ALB,[1]; Sex/Group M/11,51 g/L
same,ALP,[1]; Sex/Group M/11,260 U/L
same,ALT,[1]; Sex/Group M/11,26 U/L
same,AMY,[1]; Sex/Group M/11,810 U/L
same,BUN,[1]; Sex/Group M/11,5.3 mmol/L
same,CA,[1]; Sex/Group M/11,2.97 mmol/L
same,CRE,[1]; Sex/Group M/11,47 µmol/L
same,GLOB,[1]; Sex/Group M/11,12 g/L
same,GLU,[1]; Sex/Group M/11,7.8 mmol/L
same,K+,[1]; Sex/Group M/11,4.3 mmol/L
same,NA+,[1]; Sex/Group M/11,140 mmol/L
same,PHOS,[1]; Sex/Group M/11,2.83 mmol/L
same,TBIL,[1]; Sex/Group M/11,4.3 µmol/L
same,TP,[1]; Sex/Group M/11,62 g/L
same,ALB,[1]; Sex/Group M/12,52 g/L
same,ALP,[1]; Sex/Group M/12,248 U/L
same,ALT,[1]; Sex/Group M/12,35 U/L
same,AMY,[1]; Sex/Group M/12,846 U/L
same,BUN,[1]; Sex/Group M/12,6.2 mmol/L
same,CA,[1]; Sex/Group M/12,3.04 mmol/L
same,CRE,[1]; Sex/Group M/12,35 µmol/L
same,GLOB,[1]; Sex/Group M/12,12 g/L
same,GLU,[1]; Sex/Group M/12,7.7 mmol/L
same,K+,[1]; Sex/Group M/12,4.6 mmol/L
same,NA+,[1]; Sex/Group M/12,140 mmol/L
same,PHOS,[1]; Sex/Group M/12,3.04 mmol/L
same,TBIL,[1]; Sex/Group M/12,4.3 µmol/L
same,TP,[1]; Sex/Group M/12,64 g/L
same,ALB,[1]; Sex/Group M/13,50 g/L
same,ALP,[1]; Sex/Group M/13,263 U/L
same,ALT,[1]; Sex/Group M/13,25 U/L
same,AMY,[1]; Sex/Group M/13,808 U/L
same,BUN,[1]; Sex/Group M/13,6.4 mmol/L
same,CA,[1]; Sex/Group M/13,2.96 mmol/L
same,CRE,[1]; Sex/Group M/13,29 µmol/L
same,GLOB,[1]; Sex/Group M/13,13 g/L
same,GLU,[1]; Sex/Group M/13,8.4 mmol/L
same,K+,[1]; Sex/Group M/13,4.4 mmol/L
same,NA+,[1]; Sex/Group M/13,141 mmol/L
same,PHOS,[1]; Sex/Group M/13,2.94 mmol/L
same,TBIL,[1]; Sex/Group M/13,5.0 µmol/L
same,TP,[1]; Sex/Group M/13,63 g/L
